{"source": "patent US8809550B2", "about": "“Androgen receptor antagonists and uses thereof” (priority 2009, dated 2014)", "key": {"[1]": {"test_system": "Prostate-specific Antigen (PSA) production in LNCaP cells", "assay": "PSA assay: inhibition of PSA production in LNCaP cells (ELISA)", "assay_type": "cell-based", "conditions": "Homo sapiens, 72 h, R1881 1 ng/ml, three days, seven point assay", "description": "(§1) PSA Assay (Inhibition Test of the Compound of the Present Invention on Prostate-Specific Antigen (PSA) Production in Various Prostate Cancer Cells)\n(§2) Androgen dependent LNCaP and 22RV1 cells were purchased from the American Type Culture Collection (ATCC, Manassas, Va.). These cells were grown in RPMI 1640 medium supplemented with 10% fetal bovine serum (FBS), 100 U/mL penicillin, 100 μg/mL streptomycin, and 0.25 μg/mL amphotericin B. The cells were maintained at 37° C. and 5% CO2. LNCaP cells between passage 20 and 35, and 22RV1 cells between passage 30 and 50 were used for experiments. LNCaP is a hormone sensitive cell line, while 22RV1 is a hormone refractory prostate cancer cell line, which derived from a primary prostate tumor. This cell line was isolated from a xenograft (CWR22R-2152) that was serially propagated in mice after castration-induced regression and relapse of the parental, androgen-dependent CWR xenograft. For the PSA assay, human prostate cancer cells LNCaP or 22RV1 were seeded in a 96-well plate at a concentration of 5000 cells/100 μl/well. On the following day, Methyltrienolone (R1881, AR agonist) (final concentration 1 ng/ml), test compounds or bicalutamide (Casodex®, AstraZeneca) (final concentration 0.005 to 20 μM) were added. Three days after the addition, the concentration of PSA in the supernatant of the culture solution was measured by ELISA. ELISAs for human PSA in culture medium were performed using the ultra-sensitive assay procedure and reagents in the Active™ PSA assay kit (Diagnostic Systems Laboratories Inc., Webster, Tex.). Culture medium and standards (200 μl/well) were incubated in antibody-coated plates for 2 h at room temperature on a Titer plate shaker at 500-600 rpm. Wells were then washed five times. The HRP conjugate was diluted 1:20 with assay buffer, and 100 μl was added to all wells. The plates were incubated for 30 min at room temperature on the shaker and washed as before, and 100 μl TMB (3,3′,5,5′-tetramethylbenzidine, 0.4 g/l) was added. The plates were incubated for 10 min on the shaker, and the reaction was terminated with 100 μl stop solution. The plates were read using a plate reader at 450 nm with a 650 nm reference filter. PSA levels were normalized for differences in growth of LNCaP or 22RV1 cells following various treatments as determined by the MTS assay. IC50 of PSA was calculated based on a seven point assay (concentrations of tested compound) and expressed as micromolar (uM). Results on 22RV1 cells are shown as percent inhibition at 2 micromolar (uM). ND means not determined"}, "[2]": {"test_system": "Prostate-specific Antigen (PSA) production in 22RV1 cells", "assay": "PSA assay: inhibition of PSA production in 22RV1 cells (ELISA)", "assay_type": "cell-based", "conditions": "Homo sapiens, 72 h, R1881 1 ng/ml, three days", "description": "as §1\nas §2, with “Results on 22RV1 cells are shown as percent inhibition at 2 micromolar (uM).” left out"}, "[3]": {"test_system": "LNCaP cells", "assay": "Cell viability assay, LNCaP cells", "assay_type": "cell-based", "conditions": "Homo sapiens, LNCaP, 48 h, read-out: Inhibition of cell viability, LNCaP % inhibition at 2.5 uM", "description": "(§3) LNCaP and 22RV1 cells were maintained in RPMI 1640 medium supplemented with 10% fetal bovine serum (FBS), 100 U/mL penicillin, 100 μg/mL streptomycin, and 0.25 μg/mL amphotericin B, splitting cells when they reached 80-90% confluence. In order to test compounds, 10,000 cells/well were plated in 96 cell culture plates using 100 ul/well plating medium, cultured overnight at 37° C. in a cell culture incubator. After carefully remove plating medium, 80 ul/well of pre-warmed assay medium was added, followed by adding 10 ul/well test compounds or bicalutamide (final concentration from 20 uM to 0.1 uM), incubated at 37° C. for 30 minutes, then adding 10 ul/well freshly prepared Methyltrienolone (R1881, AR agonist) (final concentration 1 ng/ml) to each well, incubate at 37° C. for 48-hour. At the end of incubation, 20 μl MTT (2.5 mg/ml in PBS) was added to each well, and the cells were further incubated for 2 h at 37 C to allow a complete reaction between the dye and the enzyme mitochondrial dehydrogenase in the viable cells. After removal of the residual dye and medium, 100 μl dimethylsulfoxide was added to each well, and the absorbance at 570 nm was measured with an microplate reader. The fold induction over background by 1 nM R1881 in the absence of test compounds is standardized as 100% and experimental result is expressed as percentage of inhibition by testing compounds at 2.5 micromolar (uM)."}, "[4]": {"test_system": "22RV1 cells", "assay": "Cell viability assay, 22RV1 cells", "assay_type": "cell-based, human", "conditions": "Homo sapiens, 22Rv1, 48 h, read-out: Inhibition of cell viability, 22RV1 % inhibition at 2.5 uM", "description": "as §3"}, "[5]": {"test_system": "C57BL/6 mice", "assay": "C57BL/6 mouse hair growth model", "assay_type": "in vivo", "excerpt": "C57BL/6 Mouse Hair Growth Model\nSix-to 8-wk-old male C57BL/6 mice in the telogen stage of the hair cycle, weighing 15-20 g, were purchased and housed in community cages under standard conditions. The growth phase of the hair cycle (anagen) was induced in the back skin of mice with all follicles in the resting phase of the hair cycle (telogen; as judged from their homogeneously pink skin color) by being shaved on the lower back using an electric shaver under mild anesthesia. Only mice in the telogen phase (pink skin) were used in the studies. Twenty microliters of test article at two concentrations in propylene glycol/ethanol (30:70, v/v) or the vehicle control was topically applied to the shaved lower back of the mice to cover an area of approximately 1 cm^2 (20 uL/cm^2). Five mice were used in each group. The mice were treated with the compound by topical application twice daily (BID) for 4 weeks. Local irritation was recorded daily before each application, and hair growth scores were recorded twice per week. The scoring system for mouse hair growth was 0 to 4: 0=no hair growth, pink skin color; 1=skin color in shaved area changes from pink to gray without visible hair growth, indicating the onset of anagen; 2=skin color in shaved area is black with tiny hairs; 3=short black hair in shaved area; and 4=hair in shaved area is almost close to surrounding area. […]"}}}
{"molecule": "CNC(=O)c1ccc(N2C(=S)N(c3ccc(C#N)c(C(F)(F)F)c3F)C(=O)C2(C)C)cc1F", "note": "[Example 12, 4-[3-(4-Cyano-2-fluoro-3-trifluoromethyl-phenyl)-5,5-dimethyl-4-oxo-2-thioxo-imidazolidin-1-yl]-2-fluoro-N-methyl-benzamide]", "values": [{"measurement": "IC50", "setting": "[1]", "value": 280, "unit": "nM"}, {"measurement": "inhibition at 2 µM", "setting": "[2]", "value": 71, "unit": "%"}, {"measurement": "cytotoxicity at 2.5 µM", "setting": "[3]", "value": 86, "unit": "%"}, {"measurement": "cytotoxicity at 2.5 µM", "setting": "[4]", "value": 61, "unit": "%"}, {"measurement": "hair growth stimulation", "setting": "[5]; topical BID for 4 weeks, 0.2% and 1% in 30% propylene glycol and 70% ethanol, FIG. 1", "value": "stimulated hair growth in dose dependent patterns"}, {"measurement": "in vivo activity for promoting hair growth compared to RU-58841", "setting": "[5]; topical, compared to reference androgen receptor antagonist RU-58841", "value": "better in vivo activity for promoting hair growth"}]}
